Among the test systems are NCI-H522 lung; IGROV1 ovarian; NCI-H226 lung; HS 578T breast; OVCAR-4 ovarian; MDA-MB-231 breast; MOLT-4 leukemia; SW-620 colon; NCI/ADR-RES ovarian; UACC-257 melanoma; SNB-19 CNS; KM12 colon; PC-3 prostate; UO-31 renal; ACHN renal; OVCAR-3 ovarian; M14 melanoma; K-562 leukemia; MALME-3M melanoma; T-47D breast.
Experiment in all cases: inhibition of tumour cell growth, NCI panel, 48 h

The structures appear in SMILES notation.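 Each compound was tested at five concentrations against cells in 96-well plates for 48 hours. TGI is the concentration that stops growth completely.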 Bounds are passed on as bounds.

Regarding `CC(=O)C1C(=O)C(=O)N(c2ccc([N+](=O)[O-])cc2)C1=O` (configuration not stated), the TGI in the experiment with NCI-H522 lung, in the experiment with IGROV1 ovarian, in the experiment on NCI-H226 lung, with HS 578T breast, in the experiment with OVCAR-4 ovarian and with MDA-MB-231 breast was over 100 µM each time. Besides, the TGI in the experiment with MOLT-4 leukemia, with SW-620 colon, with NCI/ADR-RES ovarian, in the experiment on UACC-257 melanoma, in the experiment on SNB-19 CNS and in the experiment on KM12 colon was over 100 µM each time. For the same molecule, the TGI in the experiment with PC-3 prostate, in the experiment on UO-31 renal, with ACHN renal, with OVCAR-3 ovarian and with M14 melanoma was over 100 µM in each case.

Regarding `N#CC(C#N)=c1c2ccccc2c(=C(C#N)C#N)c2ccccc12`, the TGI with IGROV1 ovarian is 30.2 µM; in the experiment with NCI-H226 lung, 38.2 µM; with HS 578T breast, 47.7 µM; with MDA-MB-231 breast, 32.9 µM; in the experiment with MOLT-4 leukemia, over 100 µM; in the experiment on SW-620 colon, 82.8 µM. Moreover, the TGI was 72.4 µM with NCI/ADR-RES ovarian; 51.2 µM with UACC-257 melanoma; 32.4 µM in the experiment on SNB-19 CNS; 37.6 µM in the experiment on KM12 colon; 30.4 µM in the experiment on PC-3 prostate; 43.3 µM with ACHN renal. Further, the TGI in the experiment with OVCAR-3 ovarian was 30 µM; in the experiment with K-562 leukemia it was over 100 µM; in the experiment on M14 melanoma, 32.8 µM.

Consider `O=C(O)CCCNc1ncc2c(n1)-c1ccccc1OC2`, for which the TGI in the experiment on NCI-H522 lung, with IGROV1 ovarian, in the experiment on NCI-H226 lung, in the experiment on HS 578T breast, with OVCAR-4 ovarian and in the experiment on MDA-MB-231 breast was over 100 µM in each case. Besides, the TGI with MOLT-4 leukemia, in the experiment with SW-620 colon, with NCI/ADR-RES ovarian, in the experiment with UACC-257 melanoma, with SNB-19 CNS and in the experiment on KM12 colon was over 100 µM in each case. Moreover, the TGI with PC-3 prostate, with UO-31 renal, in the experiment on ACHN renal, in the experiment with MALME-3M melanoma, with OVCAR-3 ovarian and in the experiment with K-562 leukemia was over 100 µM throughout. In the experiment with M14 melanoma, this molecule had a TGI of over 100 µM.

Regarding `CS(=O)(=O)OCCCSCCSCCCOS(C)(=O)=O`, the TGI with NCI-H522 lung, in the experiment with IGROV1 ovarian, with OVCAR-4 ovarian, in the experiment on MDA-MB-231 breast, in the experiment on MOLT-4 leukemia and in the experiment on SW-620 colon was over 100 µM in each case. Also, the TGI in the experiment with NCI/ADR-RES ovarian, in the experiment on UACC-257 melanoma, with SNB-19 CNS, with KM12 colon, with PC-3 prostate and in the experiment with UO-31 renal was over 100 µM in each case. The TGI with T-47D breast, in the experiment on OVCAR-3 ovarian, in the experiment with K-562 leukemia and in the experiment on M14 melanoma was over 100 µM in each case.

Regarding `CCOC(=O)NN(C(=O)OCC)C(=C(C1=CCCCC1)N1CCOCC1)N(NC(=O)OCC)C(=O)OCC`, the TGI in the experiment on IGROV1 ovarian, with NCI-H226 lung, with MDA-MB-231 breast, in the experiment on MOLT-4 leukemia, with SW-620 colon and in the experiment with NCI/ADR-RES ovarian was over 100 µM each time. Moreover, the TGI in the experiment with SNB-19 CNS, in the experiment on KM12 colon, in the experiment on PC-3 prostate, in the experiment on UO-31 renal, in the experiment with T-47D breast and in the experiment on ACHN renal was over 100 µM each time. Besides, the TGI in the experiment with MALME-3M melanoma, in the experiment with OVCAR-3 ovarian, with K-562 leukemia and in the experiment on M14 melanoma was over 100 µM in each case.

For the molecule `Cc1nc2cc3ccccc3cc2[nH]c1=O`, the TGI in the experiment with NCI-H522 lung, in the experiment with IGROV1 ovarian, with NCI-H226 lung, in the experiment on OVCAR-4 ovarian, in the experiment on MDA-MB-231 breast and in the experiment on MOLT-4 leukemia was over 100 µM in each case. In addition, the TGI in the experiment on SW-620 colon, with NCI/ADR-RES ovarian, in the experiment on UACC-257 melanoma, in the experiment with SNB-19 CNS, in the experiment on KM12 colon and with PC-3 prostate was over 100 µM in each case. The TGI in the experiment with UO-31 renal, in the experiment on T-47D breast, in the experiment on MALME-3M melanoma, in the experiment with OVCAR-3 ovarian, in the experiment on K-562 leukemia and in the experiment with M14 melanoma was over 100 µM throughout.

Turning to `COc1ccc(CCNC(=O)c2ccccc2C2c3ccc(OCc4ccccc4)cc3Oc3cc(OCc4ccccc4)ccc32)cc1OC`, the TGI in the experiment with NCI-H522 lung, with IGROV1 ovarian, in the experiment with NCI-H226 lung, in the experiment on OVCAR-4 ovarian, with MDA-MB-231 breast and with MOLT-4 leukemia was over 100 µM throughout. Moreover, the TGI in the experiment on SW-620 colon, with NCI/ADR-RES ovarian, in the experiment with UACC-257 melanoma, in the experiment with SNB-19 CNS, in the experiment with KM12 colon and with PC-3 prostate was over 100 µM each time. The TGI in the experiment with UO-31 renal, in the experiment on T-47D breast, in the experiment on ACHN renal, in the experiment with MALME-3M melanoma, with OVCAR-3 ovarian and with K-562 leukemia was over 100 µM in each case. The TGI in the experiment on M14 melanoma was over 100 µM.

Turning to `CCc1c(CNC2=NCCN2)c(CC)c(CNC2=NCCN2)c(CC)c1CNC1=NCCN1`, the TGI in the experiment with NCI-H522 lung, in the experiment on IGROV1 ovarian, with NCI-H226 lung, with HS 578T breast, in the experiment with OVCAR-4 ovarian and in the experiment on MOLT-4 leukemia was over 100 µM in each case. The TGI in the experiment with SW-620 colon, with NCI/ADR-RES ovarian, in the experiment on UACC-257 melanoma, in the experiment with SNB-19 CNS, in the experiment with KM12 colon and in the experiment on PC-3 prostate was over 100 µM throughout. Moreover, the TGI in the experiment with UO-31 renal, in the experiment with T-47D breast, in the experiment with ACHN renal, with MALME-3M melanoma, in the experiment with OVCAR-3 ovarian and in the experiment on K-562 leukemia was over 100 µM each time. Further, the TGI with M14 melanoma was over 100 µM.

For the molecule `CC(=O)Oc1c2ccsc2c(OC(C)=O)c2ccsc12`, the TGI was determined as 1.15 µM in the experiment with NCI-H522 lung; 3.5 µM in the experiment with IGROV1 ovarian; 5.07 µM with NCI-H226 lung; 0.951 µM in the experiment on HS 578T breast; 1.73 µM with OVCAR-4 ovarian; 6.17 µM with MDA-MB-231 breast. Also, the TGI with MOLT-4 leukemia amounted to 4.47 µM; in the experiment on NCI/ADR-RES ovarian, 1.23 µM; with UACC-257 melanoma, 0.4 µM; with SNB-19 CNS, 3.17 µM; with KM12 colon, 3.24 µM; in the experiment with UO-31 renal it was 2.57 µM. Besides, the TGI in the experiment with T-47D breast was 4.09 µM; in the experiment with ACHN renal, 2.28 µM; in the experiment on MALME-3M melanoma it was 0.889 µM; with OVCAR-3 ovarian, 6.54 µM; in the experiment with K-562 leukemia it was over 100 µM; in the experiment on M14 melanoma, 0.94 µM.

For the molecule `O=C(CSCC(=O)N/N=C\c1ccc(O)c(O)c1O)N/N=C\c1ccc(O)c(O)c1O`, the TGI with NCI-H522 lung was found to be 44.4 µM; in the experiment on IGROV1 ovarian it was 42.2 µM; with NCI-H226 lung it was 53.1 µM; in the experiment with HS 578T breast it was 80.8 µM; with OVCAR-4 ovarian it was 9.22 µM; with MDA-MB-231 breast, 78.1 µM. In addition, the TGI in the experiment with MOLT-4 leukemia was 11.9 µM; with SW-620 colon, 12.8 µM; in the experiment on NCI/ADR-RES ovarian, 3.16 µM; with UACC-257 melanoma it was 50 µM; in the experiment with SNB-19 CNS, over 100 µM; in the experiment on KM12 colon, 37.1 µM. Moreover, the TGI worked out at 34.7 µM with UO-31 renal; 76.1 µM with T-47D breast; 22 µM with ACHN renal; 52.3 µM with MALME-3M melanoma; 17.6 µM with OVCAR-3 ovarian; 21.5 µM in the experiment on M14 melanoma.

As for `COC(=O)Cc1c([C@H]2[C@H](CC(=O)OC)c3ccccc3N2S(=O)(=O)c2ccc(C)cc2)[nH]c2ccccc12`, the TGI with NCI-H522 lung, in the experiment with NCI-H226 lung, in the experiment with HS 578T breast, in the experiment with OVCAR-4 ovarian, with MDA-MB-231 breast and in the experiment with MOLT-4 leukemia was over 100 µM in each case. Moreover, the TGI in the experiment with SW-620 colon, with NCI/ADR-RES ovarian, in the experiment on UACC-257 melanoma, in the experiment on SNB-19 CNS, in the experiment with KM12 colon and in the experiment on PC-3 prostate was over 100 µM each time. Also, the TGI with UO-31 renal, in the experiment with ACHN renal, in the experiment with MALME-3M melanoma, in the experiment with OVCAR-3 ovarian, in the experiment on K-562 leukemia and in the experiment on M14 melanoma was over 100 µM in each case.

As for `CN1C(=O)C(C(=O)Nc2ccccn2)C2C[C@@]1(C)Oc1ccccc12` (some centres not stated), the TGI with NCI-H522 lung, in the experiment with IGROV1 ovarian, with NCI-H226 lung, with HS 578T breast, with OVCAR-4 ovarian and in the experiment on MDA-MB-231 breast was over 100 µM in each case. The TGI in the experiment with MOLT-4 leukemia, in the experiment on SW-620 colon, with NCI/ADR-RES ovarian, in the experiment on UACC-257 melanoma, in the experiment on SNB-19 CNS and in the experiment on KM12 colon was over 100 µM each time. Moreover, the TGI in the experiment with PC-3 prostate, in the experiment with UO-31 renal, with ACHN renal, in the experiment on MALME-3M melanoma, in the experiment with OVCAR-3 ovarian and in the experiment with K-562 leukemia was over 100 µM in each case. The same molecule registered a TGI with M14 melanoma of over 100 µM.
